Measurements taken from ChEMBL document CHEMBL4421722, “Inhibitors of protein prenyltransferases” (2013).

How the values were obtained:
Rattus norvegicus [1] = organism: Rattus norvegicus; experiment: Inhibition of rat recombinant geranylgeranyltransferase type I expressed in Escherichia coli assessed as residual enzyme activity for geranylgeranylation of RhoA at 50 uM incubated for 30 mins in presence of [3H]GGPP by scintillation counting assay relative to control
Rattus norvegicus [2] = organism: Rattus norvegicus; experiment: Inhibition of rat recombinant geranylgeranyltransferase type I expressed in Escherichia coli assessed as residual enzyme activity for geranylgeranylation of K-Ras4B at 50 uM incubated for 30 mins in presence of [3H]GGPP by scintillation counting assay relative to control

SMILES | Activity (Rattus norvegicus [1]) [%] | Activity (Rattus norvegicus [2]) [%]
CCCCS[C@@H]1C[C@@H](c2cccc(Cl)c2)N(S(=O)(=O)c2ccc(C)cc2)C[C@H]1C(=O)O | -1.2 | 8.5 to 16.7
COc1cccc([C@@H]2C[C@@H](SCCc3ccccc3)[C@H](C(=O)O)CN2S(=O)(=O)c2ccc(C)cc2)c1 | 11.4 | 20.8 to 24.2
CCOc1ccc([C@@H]2C[C@@H](Sc3ccc(Cl)cc3)[C@H](C(=O)O)CN2S(=O)(=O)c2ccc(C)cc2)cc1 | 2.6 | 72.4
Cc1ccc([C@@H]2CC=C(C(=O)O)[C@H](c3cccc(Br)c3)N2S(=O)(=O)c2ccc(Cl)cc2)cc1 | 7.4 | 8.4 to 19.9
Cc1ccc(S(=O)(=O)N2[C@@H](c3ccccc3)C(C(=O)O)=CC[C@H]2c2cccc(Br)c2)cc1 | 19.4 | 35.2
CC[C@@H]1[C@@H](SCCC(=O)OC(C)(C)C)[C@@H](C(=O)O)[C@H](c2ccc(Cl)c(Cl)c2)N1S(=O)(=O)c1ccc(C)cc1 | 7.6 | 27.2
Cc1ccc(S(=O)(=O)N2C[C@@H](C(=O)O)[C@H](SCCc3ccccc3)C[C@H]2c2ccc(Cl)cc2)cc1 | 5.9 | 15.1 to 20.8
C=CCS[C@H]1[C@@H](C(=O)O)[C@H](c2ccc(Cl)cc2)N(S(=O)(=O)c2ccccc2C)[C@@H]1CCC | 8.9 | 28.4
Cc1ccc(S(=O)(=O)N2C[C@@H](C(=O)O)[C@H](SCc3ccc(Cl)cc3)C[C@H]2c2ccc(Cl)cc2)cc1 | 4.9 | 15.5 to 18.1
Cc1ccc(S(=O)(=O)N2[C@@H](c3cccc(C)c3)C(C(=O)O)=CC[C@H]2c2cccc(Br)c2)cc1 | 14.3 | 16.1 to 31.9
Cc1ccc([C@@H]2C[C@@H](Sc3ccc(Cl)cc3)[C@H](C(=O)O)CN2S(=O)(=O)c2ccccc2C)cc1 | -4.7 to 10.5 | 4 to 6
Cc1ccc([C@@H]2C[C@@H](SCc3ccc(Cl)cc3)[C@H](C(=O)O)CN2S(=O)(=O)c2ccc(Cl)cc2)cc1 | 3.3 | 30.8 to 31.6
Cc1ccc(S(=O)(=O)N2C[C@@H](C(=O)O)[C@H](SCc3ccc(Cl)cc3)C[C@H]2c2cccc(Br)c2)cc1 | 3.2 | 7.8 to 8
Cc1ccc([C@@H]2C[C@@H](Sc3ccccc3)[C@H](C(=O)O)CN2S(=O)(=O)c2ccccc2C)cc1 | 17.5 | 69.5
Cc1ccc(S(=O)(=O)N2[C@@H](c3cccc(C)c3)C(C(=O)O)=CC[C@H]2c2ccc(Cl)c(Cl)c2)cc1 | 10.3 | 12.6 to 20.2
Cc1ccc(S(=O)(=O)N2[C@@H](c3cccc(F)c3)C(C(=O)O)=CC[C@H]2c2cccc(Br)c2)cc1 | 15 | 17 to 85.6
C=CCS[C@H]1[C@@H](C(=O)O)[C@H](c2ccc(Cl)cc2)N(S(=O)(=O)c2ccc(C)cc2)[C@@H]1CC1CCCC1 | 7.7 | 25.2
COc1ccc([C@@H]2C[C@@H](Sc3ccc(Cl)cc3)[C@H](C(=O)O)CN2S(=O)(=O)c2ccccc2C)cc1 | 17.7 | 72.2
Cc1ccc(S(=O)(=O)N2[C@@H](c3cccc(Br)c3)C(C(=O)O)=CC[C@H]2c2cccc(Br)c2)cc1 | 3.7 | 9.4 to 15.2
C=CCS[C@@H]1C[C@@H](c2cccc(Br)c2)N(S(=O)(=O)c2ccc(C)cc2)C[C@H]1C(=O)O | 13.6 | 29.2 to 83.6
Cc1ccc(S(=O)(=O)N2C[C@@H](C(=O)O)[C@H](SCc3ccccc3)C[C@H]2c2cccc(Br)c2)cc1 | 2.9 | 5.5 to 7.6
COc1ccc([C@@H]2C[C@@H](Sc3ccc(Cl)cc3)[C@H](C(=O)O)CN2S(=O)(=O)c2ccc(Cl)cc2)cc1 | 8.6 | 73.2

SMILES | Activity (Rattus norvegicus [1]) [%] | Activity (Rattus norvegicus [2]) [%]
Cc1ccc(S(=O)(=O)N2C[C@@H](C(=O)O)[C@H](Sc3ccccc3)C[C@H]2c2cccc(Br)c2)cc1 | 2.9 | –
C=CCS[C@H]1[C@@H](C(=O)O)[C@H](c2ccc(Br)cc2)N(S(=O)(=O)c2ccc(C)cc2)[C@@H]1CCC | 7.5 | 9.8
O=C(O)C1=CC[C@@H](c2ccc(Cl)cc2)N(S(=O)(=O)c2ccc(Cl)cc2)[C@H]1c1cccc(Br)c1 | 5 | 8.6 to 17.3
Cc1ccc(S(=O)(=O)N2C[C@@H](C(=O)O)[C@H](SCc3ccc(Cl)cc3)C[C@H]2c2cccc(Cl)c2)cc1 | 6 | 11.9 to 13.5
COc1ccc([C@H]2C(C(=O)O)=C[C@@H](C(C)(C)C)N2S(=O)(=O)c2ccc(C)cc2)cc1OC | 6.1 | 23.4
C=CCS[C@H]1[C@@H](C(=O)O)[C@H](c2ccc(Cl)c(Cl)c2)N(S(=O)(=O)c2ccc(C)cc2)[C@@H]1CCCCCC | 6.8 | 15.1
CCC[C@@H]1[C@@H](SCCC(=O)OC(C)(C)C)[C@@H](C(=O)O)[C@H](c2ccc(Cl)cc2)N1S(=O)(=O)c1ccc(Cl)cc1 | 9.2 | 21.7
Cc1ccc(S(=O)(=O)N2C[C@@H](C(=O)O)[C@H](SCc3ccccc3)C[C@H]2c2cccc(Cl)c2)cc1 | 8.3 | 11.5 to 18.1
C=CCS[C@H]1[C@@H](C(=O)O)[C@H](c2ccc(C#N)cc2)N(S(=O)(=O)c2ccc(C)cc2)[C@@H]1CCCCCC | 6 | 21.5
Cc1ccc(S(=O)(=O)N2C[C@@H](C(=O)O)[C@H](Sc3ccccc3)C[C@H]2c2ccccc2F)cc1 | 8.1 | 51
COc1ccc([C@@H]2C[C@@H](SCCc3ccccc3)[C@H](C(=O)O)CN2S(=O)(=O)c2ccccc2)cc1 | 9.6 | 24.1 to 28.3
Cc1ccc(S(=O)(=O)N2C[C@@H](C(=O)O)[C@H](Sc3ccccc3)C[C@H]2c2cccc(Cl)c2)cc1 | 8.3 | 87.5
Cc1ccc([C@@H]2C[C@@H](SCCc3ccccc3)[C@H](C(=O)O)CN2S(=O)(=O)c2ccc(Cl)cc2)cc1 | 9.5 | 22.7 to 27
Cc1ccc(S(=O)(=O)N2C[C@@H](C(=O)O)[C@H](SCCc3ccccc3)C[C@H]2c2cccc(Cl)c2)cc1 | 3.7 | 4.8 to 9.2
Cc1ccc([C@@H]2C[C@@H](Sc3ccc(Cl)cc3)[C@H](C(=O)O)CN2S(=O)(=O)c2ccccc2)cc1 | 17.2 | 78.3
Cc1ccc([C@@H]2C[C@@H](SCc3ccccc3)[C@H](C(=O)O)CN2S(=O)(=O)c2ccccc2C)cc1 | 17.5 | 32 to 35.6
Cc1ccccc1S(=O)(=O)N1[C@@H](c2ccc(F)cc2)C(C(=O)O)=CC[C@H]1c1ccc(Cl)cc1 | 12.6 | 15.6 to 28.8
Cc1ccc(S(=O)(=O)N2C[C@@H](C(=O)O)[C@H](SCCC(C)C)C[C@H]2c2cccc(Cl)c2)cc1 | 12 | 25.1 to 26
COc1ccc([C@@H]2C[C@@H](Sc3ccc(Cl)cc3)[C@H](C(=O)O)CN2S(=O)(=O)c2ccccc2)cc1 | 13.4 | 88.8
Cc1ccc([C@H]2C(C(=O)O)=CC[C@@H](c3ccc(Cl)c(Cl)c3)N2S(=O)(=O)c2ccc(C)cc2)cc1 | 15.6 | 12.4 to 17.4
Cc1ccccc1S(=O)(=O)N1[C@@H](c2ccccc2)C(C(=O)O)=CC[C@H]1c1ccc(Cl)cc1 | 5.8 | 13.4
Cc1ccccc1S(=O)(=O)N1[C@@H](c2ccccc2F)C(C(=O)O)=CC[C@H]1c1ccc(Cl)cc1 | 4.1 | 8.4

SMILES | Activity (Rattus norvegicus [1]) [%] | Activity (Rattus norvegicus [2]) [%]
COc1ccc([C@@H]2C[C@@H](SCCc3ccccc3)[C@H](C(=O)O)CN2S(=O)(=O)c2ccccc2C)cc1 | 6 | 15.2 to 19.5
C=CCS[C@@H]1C[C@@H](c2ccc(Cl)cc2)N(S(=O)(=O)c2ccccc2C)C[C@H]1C(=O)O | 9.4 | 16.4 to 17.8
Cc1ccc(S(=O)(=O)N2C[C@@H](C(=O)O)[C@H](SCc3ccc(Cl)cc3)C[C@H]2c2ccccc2)cc1 | 14.2 | 23.7 to 24.8
Cc1ccc([C@@H]2C[C@@H](Sc3ccccc3)[C@H](C(=O)O)CN2S(=O)(=O)c2ccccc2)cc1 | – | 92
Cc1ccc([C@@H]2CC=C(C(=O)O)[C@H](c3ccc(F)cc3)N2S(C)(=O)=O)cc1 | – | 84.4
CCS[C@@H]1C[C@@H](c2cc(OC)c(OC)c(OC)c2)N(S(=O)(=O)c2ccc(C)cc2)C[C@H]1C(=O)O | – | 90.4
Cc1ccc(S(=O)(=O)N2C[C@@H](C(=O)O)[C@H](SC3CCCC3)C[C@H]2c2cccc(Cl)c2)cc1 | – | 88.7
CCc1ccc([C@@H]2CC=C(C(=O)O)[C@H](c3cccc(Cl)c3)N2S(=O)(=O)c2ccc(C)cc2)cc1 | – | 73.6
Cc1ccc([C@H]2C(C(=O)O)=CC[C@@H](c3ccc(Cl)cc3)N2S(=O)(=O)c2ccccc2C)cc1 | – | 61.6
Cc1ccc(S(=O)(=O)N2[C@@H](c3cccc(Cl)c3)C(C(=O)O)=CC[C@H]2c2cccs2)cc1 | – | 79.5
COc1ccc(S[C@@H]2C[C@@H](c3cccc(Cl)c3)N(S(=O)(=O)c3ccc(C)cc3)C[C@H]2C(=O)O)cc1 | – | 93.3
Cc1cccc([C@H]2C(C(=O)O)=CC[C@@H](c3ccc(Cl)cc3)N2S(C)(=O)=O)c1 | – | 45.5
Cc1ccc(S(=O)(=O)N2[C@@H](c3ccc(F)cc3)C(C(=O)O)=CC[C@H]2c2ccc(Cl)cc2)cc1 | – | 62
CCOc1ccc([C@@H]2C[C@@H](Sc3ccc(C)cc3)[C@H](C(=O)O)CN2S(=O)(=O)c2ccc(C)cc2)cc1 | – | 65.4
Cc1ccccc1S(=O)(=O)N1C[C@@H](C(=O)O)[C@H](SCCC(C)C)C[C@H]1c1ccc(Cl)cc1 | – | 53.2
COc1ccc([C@@H]2CC=C(C(=O)O)[C@H](c3ccc(F)cc3)N2S(=O)(=O)c2ccccc2C)cc1 | – | 66.1
Cc1ccc(S(=O)(=O)N2C[C@@H](C(=O)O)[C@H](SCC(C)C)C[C@H]2c2cccc(Cl)c2)cc1 | – | 79.7
Cc1ccc([C@@H]2C[C@@H](SCCC(C)C)[C@H](C(=O)O)CN2S(=O)(=O)c2ccc(Cl)cc2)cc1 | – | 77.6
COc1cccc([C@@H]2CC=C(C(C)=O)CN2S(=O)(=O)c2ccc(C)cc2)c1 | – | 85
CCCS[C@@H]1C[C@@H](c2ccc(C)cc2)N(S(=O)(=O)c2ccc(Cl)cc2)C[C@H]1C(=O)O | – | 83.2
Cc1ccc([C@H]2C(C(=O)O)=CC[C@@H](c3ccc(C#N)cc3)N2S(=O)(=O)c2ccc(C)cc2)cc1 | – | 90.9
